Results taken from patent US20260297042A1, “BIARYLAMIDE DERIVATIVES AND THEIR USE AS PKMYT1 INHIBITORS” (CANCER RESEARCH TECHNOLOGY LIMITED, priority 2023, published 2026).

Experiments:
WEE1 = target: T1, WEE1 (Homo sapiens, UniProt P30291); assay: Selectivity versus WEE1 assay (ADP-Glo enzymatic assay); format: biochemical; conditions: banded; for IC50: ADP-Glo, 15 nM WEE1, 60 minutes at 26° C.; for PKMYT1 vs. WEE1 selectivity: fold difference in selectivity for PKMYT1 over WEE1, ">N" = at least in this band but could be higher
T1 construct: purchased Thermo Fisher PR7373A
T1 sequence (P30291 whole entry): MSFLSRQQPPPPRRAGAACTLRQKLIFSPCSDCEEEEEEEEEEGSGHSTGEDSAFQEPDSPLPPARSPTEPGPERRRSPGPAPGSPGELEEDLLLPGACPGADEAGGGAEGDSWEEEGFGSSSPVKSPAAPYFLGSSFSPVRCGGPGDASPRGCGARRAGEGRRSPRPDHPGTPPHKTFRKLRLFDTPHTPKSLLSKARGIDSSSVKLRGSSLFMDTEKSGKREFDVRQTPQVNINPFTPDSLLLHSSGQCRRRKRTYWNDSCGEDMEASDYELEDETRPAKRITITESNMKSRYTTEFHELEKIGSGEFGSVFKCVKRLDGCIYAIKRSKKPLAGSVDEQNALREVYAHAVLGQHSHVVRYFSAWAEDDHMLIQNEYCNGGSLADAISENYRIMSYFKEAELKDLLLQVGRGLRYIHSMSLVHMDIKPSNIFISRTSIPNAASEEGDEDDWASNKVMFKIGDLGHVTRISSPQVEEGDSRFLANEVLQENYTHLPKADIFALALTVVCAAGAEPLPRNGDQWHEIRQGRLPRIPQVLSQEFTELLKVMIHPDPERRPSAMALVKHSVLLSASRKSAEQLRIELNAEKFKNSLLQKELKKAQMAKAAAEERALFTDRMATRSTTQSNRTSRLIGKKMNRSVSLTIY
Summary of the method: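 WEE1 at 15 nM final in 50 mM HEPES pH 7.5, 10 mM MgCl2, 1 mM EGTA, 0.01% Brij-35, 1% DMSO; reaction started with 30 µM ATP, 60 min at 26 °C. ADP-Glo luminescence; IC50 from dose-response curves, replicates within 3-fold and r2 >0.9.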

Human PKMYT1 = target: T2, Human PKMYT1 (Homo sapiens, UniProt Q99640); assay: PKMYT1 biochemical ADP-Glo enzymatic assay; conditions: ADP-Glo; 15 nM PKMYT1 kinase domain, 500 µM ATP, 60 minutes at 26° C.; banded
T2 construct: Human PKMYT1 75-362 was cloned as a TEV cleavable 6xHis fusion; 6xHis (TEV cleavable) (cleaved yes); made in house; host or cells: bacterial cells
T2 sequence (Q99640 75-362): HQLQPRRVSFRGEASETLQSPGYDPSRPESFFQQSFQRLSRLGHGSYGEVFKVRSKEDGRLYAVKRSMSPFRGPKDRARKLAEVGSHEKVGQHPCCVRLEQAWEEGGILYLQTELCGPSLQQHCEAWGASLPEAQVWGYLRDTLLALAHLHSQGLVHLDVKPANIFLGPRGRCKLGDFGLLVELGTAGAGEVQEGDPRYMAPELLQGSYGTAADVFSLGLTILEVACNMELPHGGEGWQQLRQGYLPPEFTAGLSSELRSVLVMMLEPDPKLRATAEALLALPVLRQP
Summary of the method: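 Purified untagged human PKMYT1 75-362 at 15 nM final was tested in HEPES pH 7.5 with MgCl2, EGTA, Brij-35 and 1% DMSO. Intrinsic ATPase activity was measured with 500 uM ATP over 60 min at 26° C. ADP-Glo luminescence was read and IC50 fitted from 10-point, 3-fold dilution curves.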

Structure (SMILES) | IC50 (WEE1) [nM] | PKMYT1 vs. WEE1 selectivity (WEE1) | IC50 (Human PKMYT1) [nM]
Cc1ccc(O)c(C)c1NC(=O)c1cnc(Nc2ccn(CC(=O)N3CC(F)(F)C3)n2)s1 [BAA-196] | > 11000 | Y (1000-5000 fold) | < 50
CCCNC(=O)Cn1ccc(Nc2ncc(C(=O)Nc3c(C)ccc(O)c3C)s2)n1 [BAA-197] | > 11000 | Y (1000-5000 fold) | < 50
Cc1ccc(O)c(C)c1NC(=O)c1cnc(Nc2ccn(CC(=O)N3CCN(C(=O)CC(C)C)CC3)n2)s1 [BAA-198, N-(3-hydroxy-2,6-dimethyl-phenyl)-2-[[1-[2-[4-(3-methylbutanoyl)piperazin-1-yl]-2-oxo-ethyl]pyrazol-3-yl]amino]thiazole-5-carboxamide] | > 11000 | Y (1000-5000 fold) | < 50
Cc1ccc(O)c(C)c1NC(=O)c1cnc(Nc2ccn(CC(=O)N3CC4(CNC4)C3)n2)s1 [BAA-200, 2-[[1-[2-(2,6-Diazaspiro[3.3]heptan-2-yl)-2-oxo-ethyl]pyrazol-3-yl]amino]-N-(3-hydroxy-2,6-dimethyl-phenyl)thiazole-5-carboxamide 2,2,2-trifluoroacetate] | > 11000 | X (100-<1000 fold) | < 50
Cc1ccc(O)c(C)c1NC(=O)c1cnc(Nc2cc(C)n(CC(=O)N3CCN(C)CC3)n2)s1 [BAA-201] | > 11000 | X (100-<1000 fold) | < 50
CCNC(=O)Cn1nc(Nc2ncc(C(=O)Nc3c(C)ccc(O)c3C)s2)cc1C [BAA-202, 2-[[1-[2-(ethylamino)-2-oxo-ethyl]-5-methyl-pyrazol-3-yl]amino]-N-(3-hydroxy-2,6-dimethyl-phenyl)thiazole-5-carboxamide] | > 11000 | X (100-<1000 fold) | < 50
Cc1ccc(O)c(C)c1NC(=O)c1cnc(Nc2cc(C)n(CC(=O)N3CCCC3)n2)s1 [BAA-203] | > 11000 | Y (1000-5000 fold) | < 50
CCN(CC)C(=O)Cn1nc(Nc2ncc(C(=O)Nc3c(C)ccc(O)c3C)s2)cc1C [BAA-204, 2-[[1-[2-(diethylamino)-2-oxo-ethyl]-5-methyl-pyrazol-3-yl]amino]-N-(3-hydroxy-2,6-dimethyl-phenyl)thiazole-5-carboxamide] | > 11000 | Z (>5000 fold) | < 50
Cc1cn(CC(=O)N2CCN(C)CC2)nc1Nc1ncc(C(=O)Nc2c(C)ccc(O)c2C)s1 [BAA-205, N-(3-hydroxy-2,6-dimethyl-phenyl)-2-[[4-methyl-1-[2-(4-methylpiperazin-1-yl)-2-oxo-ethyl]pyrazol-3-yl]amino]thiazole-5-carboxamide] | > 11000 | Y (1000-5000 fold) | < 50
Cc1ccc(O)c(C)c1NC(=O)c1cnc(Nc2nn(C)c3cccnc23)s1 [BAA-210, N-(3-Hydroxy-2,6-dimethyl-phenyl)-2-[(1-methylpyrazolo[4,3-b]pyridin-3-yl)amino]thiazole-5-carboxamide] | > 11000 | Z (>5000 fold) | < 50
Cc1ccc(O)c(C)c1NC(=O)c1cnc(NCC2CCN(C(=O)CC(C)(C)C)CC2)s1 [BAA-212, 2-[[1-(3,3-Dimethylbutanoyl)-4-piperidyl]methylamino]-N-(3-hydroxy-2,6-dimethyl-phenyl)thiazole-5-carboxamide] | > 11000 | >X (100-<1000 fold) | 50 to 1000
COc1ccc(CC(=O)N2CCC(CNc3ncc(C(=O)Nc4c(C)ccc(O)c4C)s3)CC2)cc1 [BAA-213, N-(3-Hydroxy-2.6-dimethyl-phenyl)-2-[[1-[2-(4-methoxyphenyl)acetyl]-4-piperidyl]methylamino]thiazole-5-carboxamide] | > 11000 | >X (100-<1000 fold) | 50 to 1000
Cc1ccc(O)c(C)c1NC(=O)c1cnc(NCC2CCN(C(=O)Cc3ccc(Cl)cc3)CC2)s1 [BAA-214, 2-[[1-[2-(4-chlorophenyl)acetyl]-4-piperidyl]methylamino]-N-(3-hydroxy-2,6-dimethyl-phenyl)thiazole-5-carboxamide] | > 11000 | >X (100-<1000 fold) | 50 to 1000

More lines, now with the values ahead:

IC50 (WEE1) [nM] | PKMYT1 vs. WEE1 selectivity (WEE1) | IC50 (Human PKMYT1) [nM] | Structure (SMILES)
> 11000 | Y (1000-5000 fold) | < 50 | Cc1ccc(O)c(C)c1NC(=O)c1cnc(Nc2ccn(CC(=O)N3CCN(C4CC4)CC3)n2)s1 [BAA-182, 2-[[1-[2-(4-cyclopropylpiperazin-1-yl)-2-oxo-ethyl]pyrazol-3-yl]amino]-N-(3-hydroxy-2,6-dimethyl-phenyl)thiazole-5-carboxamide]
> 11000 | >X (100-<1000 fold) | 50 to 1000 | Cc1ccc(O)c(C)c1NC(=O)c1cnc(Nc2ccn(CC(=O)N3CCN(CC(F)(F)F)CC3)n2)s1 [BAA-184]
> 11000 | >Y (1000-5000 fold) | 50 to 1000 | Cc1ccc(O)c(C)c1NC(=O)c1cnc(Nc2ccn(CC(=O)N3CCN(C4CCC4)CC3)n2)s1 [BAA-185]
> 11000 | Y (1000-5000 fold) | < 50 | Cc1ccc(O)c(C)c1NC(=O)c1cnc(Nc2ccn(CC(=O)N3CCN(C4CCCC4)CC3)n2)s1 [BAA-186]
> 11000 | Y (1000-5000 fold) | < 50 | Cc1ccc(O)c(C)c1NC(=O)c1cnc(Nc2ccn(CC(=O)N3CCN(C4CCCCC4)CC3)n2)s1 [BAA-187]
> 11000 | Y (1000-5000 fold) | < 50 | CCNC(=O)Cn1ccc(Nc2ncc(C(=O)Nc3c(C)ccc(O)c3C)s2)n1 [BAA-188]
> 11000 | Y (1000-5000 fold) | 50 to 1000 | Cc1ccc(O)c(C)c1NC(=O)c1cnc(Nc2ccn(CC(=O)NC(C)C)n2)s1 [BAA-189, N-(3-hydroxy-2,6-dimethyl-phenyl)-2-[[1-[2-(isopropylamino)-2-oxo-ethyl]pyrazol-3-yl]amino]thiazole-5-carboxamide]
> 11000 | Y (1000-5000 fold) | < 50 | Cc1ccc(O)c(C)c1NC(=O)c1cnc(Nc2ccn(CC(=O)NC3CCC3)n2)s1 [BAA-191]
> 11000 | Y (1000-5000 fold) | < 50 | Cc1ccc(O)c(C)c1NC(=O)c1cnc(Nc2ccn(CC(=O)NC3CCCC3)n2)s1 [BAA-192]
> 11000 | Y (1000-5000 fold) | < 50 | Cc1ccc(O)c(C)c1NC(=O)c1cnc(Nc2ccn(CC(=O)NC3CCCCC3)n2)s1 [BAA-193]
> 11000 | Y (1000-5000 fold) | < 50 | Cc1ccc(O)c(C)c1NC(=O)c1cnc(Nc2ccn(CC(=O)N3CC4C(C3)C4(F)F)n2)s1 (stereo not drawn) [BAA-194]
> 11000 | Y (1000-5000 fold) | < 50 | Cc1ccc(O)c(C)c1NC(=O)c1cnc(Nc2ccn(CC(=O)NC3CCOCC3)n2)s1 [BAA-195]
1000 to 11000 | Y (1000-5000 fold) | < 50 | Cc1ccc(O)c(C)c1NC(=O)c1cnc(Nc2ccn(CC(=O)N3CC4(CCC4)C3)n2)s1 [BAA-199]
